Test results published in patent publication US5726012A, “Rapid, high capacity nucleic acid based assay” (E. I. du Pont de Nemours and Company, priority 1994, dated 1998).
Converted amounts (≈) assume the structure as drawn. Read-outs that look alike come from different tables or passages of the source.

Assays:
[1] = system: HIV RF (HIV-1 RNA) in MT-2 cells; experiment: Quantitation of cell associated HIV-1 RNA in infected MT-2 cells (correlation study); assay type: cell-based, HIV-1 (strain RF); settings: for IC90 for HIV-1 RNA compared with IC90 for yield of infectious virus / cell associated RNA: 72 hours, MT-2 cells, HIV RF; for IC90: Human immunodeficiency virus 1, MT2, 72 h, 72 hrs after infection
Description: HIV-1 infected cell lysates from MT-2 cells grown for 24, 48 and 72 hours after infection with different initial multiplicities of infection (MOI, e.g., TCID 50 per cell) of HIV-1RF were prepared by the cell pelleting method as described in Example 5. The tissue culture infectious dose (TCID 50) for HIV-1 RF stocks were determined in MT-2 cells by a modification of the method of Johnson et al., "Infectivity Assay", Techniques in HIV Research, Aldovina et al. (1990) wherein the tissue culture medium was not changed after four days. 40 μl of the lysate and 5 μl of 1 μM biotinylated `pol` oligo were combined with GED to a final volume of 100 μl and a GED concentration of 3M and a final biotinylated `pol` oligo concentration of 50 nM. Hybridization was carried out overnight at 37° C. in sealed polypropylene tubes. Each sample was diluted three-fold with deionized water to a final GED concentration of 1M and aliquots (120 μl) transferred to streptavidin coated microtiter plate wells. The biotin oligo-RNA complex solution was incubated with the immobilized streptavidin for two hours at room temperature, after which the plates were washed six times with DuPont ELISA plate wash buffer (phosphate buffered saline (PBS)/0.05% Tween 20) with a Denley plate washer. A second hybridization was carried out by adding 120 μl of hybridization cocktail containing 4× standard saline citrate (0.15M NaCl, 0.015 sodium citrate) (SSC), 0.66% Triton X-100 and 6.66% deionized formamide, 1 mg/ml bovine serum albumin (BSA) and 5 nM `pol` AP reporter oligo to each well. After hybridization for one hour at 37° C., the plate was again washed six times in PBS/0.05% Tween 20. Alkaline phosphatase activity was detected by addition of 100 μl of substrate detection buffer, consisting of: 0.2 mM 4-methylumbelliferyl phosphate (MUBP, JBL Scientific) in 2.5M diethanolamine pH 8.9 (JBL), 10 mM MgCl2, 5 mM Zinc acetate dihydrate, and 5 mM n-hydroxyethyl-ethylene-diamine-triacetic acid. The plates were incubated at 37° C. Fluorescence was measured using a microplate fluorometer (Dynateck) exciting at 365 nm and emitting at 450 nm. […] At MOI's greater than 1 for cells cultured 72 hours after infection the level of HIV-1RNA was diminished by cell death that occurs as a result of extensive virus replication.
MT-2 cells were infected by resuspension in medium (Dulbecco's Modified Eagles, 5% Fetal calf serum, 50 ug/ml glutamine, 50 ug/ml gentamycin) containing either 1 ×10^6 TCID 50/ ml (FIGS. 7 and 9) or 2.5×10^5 TCID 50/ml of HIV RF virus (FIGS. 8 and 9) to a final concentration of 5×10^5 cells/ml, with or without various concentrations of AZT or P9941 which is (2S,3R,4R, 5S)-N,N'-[(2-pyridylacetyl)-L-isoleucyl]-2,5-diamino-1,6-diphenyl-hexane-3,4-diol as described in WO91/18866, the disclosure of which is incorporated by reference. After incubation for four hours at 37° C., the cells were pelleted, the supernatant medium removed, and cells resuspended in an equal volume of medium ± compound without added virus. Culture was continued for a total of 72 hours at 37° C. after which time cells were pelleted, lysed by addition of 5M GED, and stored frozen at -70° C. until quantitation of HIV-1 RNA by the method described in Example 8 except that the `gag` capture/reporter probe set as described in Example 2 was employed. Supernatant medium from each sample was frozen at -120° C. until determination of yield of infectious virus by plaque assay as described in Example 11. […] Both cell associated RNA and yield of infectious virus were reduced by treatment with either AZT, a reverse transcriptase inhibitor, or P9941, an inhibitor of the HIV encoded protease. The concentration of AZT or P9941 required to inhibit HIV-1 RNA by 90% (IC90) was equivalent to the concentration of AZT or P9941 required to inhibit the yield of infectious virus by 90% (IC90). The concentrations of antiviral compound required to inhibit either HIV-1 RNA or yield of infectious virus by 90% (IC90) were very similar. […]

[2] = system: HIV RF (infectious virus) in MT-2 cells; experiment: Yield of infectious virus by plaque assay (yield reduction assay) in MT-2 cells; assay type: cell-based, HIV-1 (strain RF); settings: for yield of infectious virus: 72 hours, MT-2 cells, HIV RF; for IC90: Human immunodeficiency virus 1, MT2, 72 h
Description: Test compounds were dissolved in dimethylsulfoxide to 5 mg/ml and serially diluted into RPMI 1640 medium to 10 times the desired final concentration. MT-2 cells (5×10^5 /ml) in 2.3 ml were mixed with 0.3 ml of the appropriate test compound solution and allowed to sit for 30 minutes at room temperature. HIV-1 IIIB or HIV-1 RF virus (~5×10^5 plaque forming units/ml) in 0.375 ml was added to the cell and compound mixtures and incubated for one hour at 36° C. The mixtures were centrifuged at 1000 rpm for 10 minutes and the supernatants containing unattached virus were discarded. The cell pellets were suspended in fresh RPMI 1640 containing the appropriate concentrations of test compound and placed in a 36° C., 4% CO2 incubator. Virus was allowed to replicate for three days. Cultures were centrifuged for 10 minutes at 1000 rpm and the supernatants containing cell free progeny virus removed for plaque assay. Virus suspensions were serially diluted in RPMI 1640 and 1.0 ml of each dilution added to 9 ml of MT-2 cells in RPMI 1640. Cells and virus were incubated for three hours at 36° C. to allow for efficient attachment of the virus to cells. Each virus and cell mixture was aliquoted equally to two wells of a six well poly-L-lysine coated culture plate and incubated overnight at 36° C., 4% CO2. Liquid and unattached cells were removed prior to the addition of 1.5 ml of RPMI 1640 with 0.75% (w/v) Seaplaque agarose (FMC Corp) and 5% FCS. Plates were incubated for three days and a second RPMI 1640/agarose overlay added. After an additional three days at 36° C., 4% CO2, a final overlay of PBS with 0.75% Seaplaque agarose and 1 mg/ml MTT was added. The plates were incubated overnight at 36° C. Clear plaques on a purple background were counted and the number of plaque forming units of virus calculated for each sample. The virus titers of the progeny virus produced in the presence or absence of test compounds was determined by plaque assay as described above. The antiviral activity of test compounds was determined by the percent reduction in the virus titer with respect to virus grown in the absence of any inhibitors.
MT-2 cells were infected by resuspension in medium (Dulbecco's Modified Eagles, 5% Fetal calf serum, 50 ug/ml glutamine, 50 ug/ml gentamycin) containing either 1 ×10^6 TCID 50/ ml (FIGS. 7 and 9) or 2.5×10^5 TCID 50/ml of HIV RF virus (FIGS. 8 and 9) to a final concentration of 5×10^5 cells/ml, with or without various concentrations of AZT or P9941 which is (2S,3R,4R, 5S)-N,N'-[(2-pyridylacetyl)-L-isoleucyl]-2,5-diamino-1,6-diphenyl-hexane-3,4-diol as described in WO91/18866, the disclosure of which is incorporated by reference. After incubation for four hours at 37° C., the cells were pelleted, the supernatant medium removed, and cells resuspended in an equal volume of medium ± compound without added virus. Culture was continued for a total of 72 hours at 37° C. after which time cells were pelleted, lysed by addition of 5M GED, and stored frozen at -70° C. until quantitation of HIV-1 RNA by the method described in Example 8 except that the `gag` capture/reporter probe set as described in Example 2 was employed. Supernatant medium from each sample was frozen at -120° C. until determination of yield of infectious virus by plaque assay as described in Example 11. […] Both cell associated RNA and yield of infectious virus were reduced by treatment with either AZT, a reverse transcriptase inhibitor, or P9941, an inhibitor of the HIV encoded protease. The concentration of AZT or P9941 required to inhibit HIV-1 RNA by 90% (IC90) was equivalent to the concentration of AZT or P9941 required to inhibit the yield of infectious virus by 90% (IC90). The concentrations of antiviral compound required to inhibit either HIV-1 RNA or yield of infectious virus by 90% (IC90) were very similar. For both HIV RNA and yield of infectious virus, this IC90 value was affected by the initial MOI (Table 1).

IC90 ([2]; 72 hrs after infection, MOI = 0.5, read-out: IC90, PFU)	IC90 ([2]; 72 hrs after infection, MOI = 2.0, read-out: IC90, PFU)	SMILES	IC90 for HIV-1 RNA compared with IC90 for yield of infectious virus [1]	cell associated RNA [1]	IC90 ([1]; MOI = 0.5)	IC90 ([1]; MOI = 2.0)	yield of infectious virus [2]	IC90 ([2]; read-out: IC90, PFU, 72 hrs after infection, MOI = 0.5)	IC90 ([2]; read-out: IC90, PFU, 72 hrs after infection, MOI = 2.0)
–	–	Cc1cn([C@H]2C[C@H](N=[N+]=[N-])[C@@H](CO)O2)c(=O)[nH]c1=O [AZT]	equivalent	reduced	0.12 µg/mL (≈ 0.449 µM)	0.2 µg/mL (≈ 0.748 µM)	reduced	0.09 µg/mL (≈ 0.337 µM)	0.28 µg/mL (≈ 1.05 µM)
0.38 µg/mL (≈ 0.497 µM)	1 µg/mL (≈ 1.31 µM)	CC[C@H](C)[C@H](NC(=O)Cc1ccccn1)C(=O)N[C@@H](Cc1ccccc1)[C@@H](O)[C@H](O)[C@H](Cc1ccccc1)NC(=O)[C@@H](NC(=O)Cc1ccccn1)[C@@H](C)CC [P9941, (2S,3R,4R, 5S)-N,N'-[(2-pyridylacetyl)-L-isoleucyl]-2,5-diamino-1,6-diphenyl-hexane-3,4-diol]	equivalent	reduced	0.55 µg/mL (≈ 0.719 µM)	1.5 µg/mL (≈ 1.96 µM)	reduced	–	–
